Values quoted from earlier work, collected in PubChem BioAssay AID1259409 (Chemical Carcinogenesis Research Information System (CCRIS), 2018).
Values joined by “and” are separate entries in the source; they are usually repeats but may differ in a detail not shown here. Identical values can stand only once.

Tested on: rodent chemically induced tumor inhibition, incidence and multiplicity
Assay: CCRIS tumor inhibitor studies

Question: With `CC(C)(O)/C=C/C(=O)[C@](C)(O)[C@H]1[C@H](O)C[C@@]2(C)[C@@H]3CC=C4[C@@H](C[C@H](O)[C@@H](O)C4(C)C)[C@]3(C)C(=O)C[C@]12C` as the compound, how does the “tumour outcome (control, treated, inhibition, significance)” value (Carcinogen: 7,12-DIMETHYLBENZ[A]ANTHRACENE, 57-97-6, Dose [Inhibitor]: 0, 85 NMOL IN 0.1 ML ACETONE APPLIED 1 HR PRIOR TO EACH PROMOTER DOSE 2/WK FOR 20 WK (STUDY DURATION: 21 WK), Route [Inhibitor]: DERMAL, Species: MOUSE, Strain/Sex: ICR/FEMALE, Target Tissue: Type of Lesion: SKIN: PAPILLOMA, Dose [Carcinogen]: 100 UG IN 0.1 ML ACETONE ONCE, Promoter: 12-O-TETRADECANOYLPHORBOL-13-ACETATE, 16561-29-8) read?
Answer: The value was 100%, 100%, 0%, not significant.

Question: What does the source list for `NC(=O)NO`?
Answer: tumour outcome (control, treated, inhibition, significance) (Carcinogen: 7,12-DIMETHYLBENZ[A]ANTHRACENE, 57-97-6, Dose [Inhibitor]: 0, 0.5 MG/G BW IN 0.9% SALINE ONCE 1 HR PRIOR TO FIRST PROMOTER DOSE (STUDY DURATION: 22 WK), Route [Inhibitor]: INTRAPERITONEAL, Species: MOUSE, Strain/Sex: NMRI/FEMALE, Target Tissue: Type of Lesion: SKIN: PAPILLOMA, Dose [Carcinogen]: 50 UG/G BW IN SESAME OIL): 95%, 79%, 17%, not significant; tumour outcome (control, treated, inhibition, significance) (Carcinogen: 7,12-DIMETHYLBENZ[A]ANTHRACENE, 57-97-6, Dose [Inhibitor]: 0, 0.5 MG/G BW IN 0.9% SALINE ONCE 6 HR POST FIRST PROMOTER DOSE (STUDY DURATION: 22 WK), Route [Inhibitor]: INTRAPERITONEAL, Species: MOUSE, Strain/Sex: NMRI/FEMALE, Target Tissue: Type of Lesion: SKIN: PAPILLOMA, Dose [Carcinogen]: 50 UG/G BW IN SESAME OIL): 95%, 65%, 32%, not calculated; tumour outcome (control, treated, inhibition, significance) (Carcinogen: 7,12-DIMETHYLBENZ[A]ANTHRACENE, 57-97-6, Dose [Inhibitor]: 0, 0.5 MG/G BW IN 0.9% SALINE ONCE 12 HR POST FIRST PROMOTER DOSE (STUDY DURATION: 22 WK), Route [Inhibitor]: INTRAPERITONEAL, Species: MOUSE, Strain/Sex: NMRI/FEMALE, Target Tissue: Type of Lesion: SKIN: PAPILLOMA, Dose [Carcinogen]: 50 UG/G BW IN SESAME OIL): 95%, 60%, 37%, not calculated and 95%, 59%, 38%, not calculated; tumour outcome (control, treated, inhibition, significance) (Carcinogen: 7,12-DIMETHYLBENZ[A]ANTHRACENE, 57-97-6, Dose [Inhibitor]: 0, 0.5 MG/G BW IN 0.9% SALINE ONCE 18 HR POST FIRST PROMOTER DOSE (STUDY DURATION: 22 WK), Route [Inhibitor]: INTRAPERITONEAL, Species: MOUSE, Strain/Sex: NMRI/FEMALE, Target Tissue: Type of Lesion: SKIN: PAPILLOMA, Dose [Carcinogen]: 50 UG/G BW IN SESAME OIL): 95%, 33%, 65%, not calculated and 95%, 30%, 68%, not calculated and 93%, 33%, 65%, not calculated; tumour outcome (control, treated, inhibition, significance) (Carcinogen: 7,12-DIMETHYLBENZ[A]ANTHRACENE, 57-97-6, Dose [Inhibitor]: 0, 0.5 MG/G BW IN 0.9% SALINE ONCE 24 HR POST FIRST PROMOTER DOSE (STUDY DURATION: 22 WK), Route [Inhibitor]: INTRAPERITONEAL, Species: MOUSE, Strain/Sex: NMRI/FEMALE, Target Tissue: Type of Lesion: SKIN: PAPILLOMA, Dose [Carcinogen]: 50 UG/G BW IN SESAME OIL): 95%, 39%, 59%, not calculated and 95%, 45%, 53%, not calculated; tumour outcome (control, treated, inhibition, significance) (Carcinogen: 7,12-DIMETHYLBENZ[A]ANTHRACENE, 57-97-6, Dose [Inhibitor]: 0, 0.5 MG/G BW IN 0.9% SALINE ONCE 48 HR POST FIRST PROMOTER DOSE (STUDY DURATION: 22 WK), Route [Inhibitor]: INTRAPERITONEAL, Species: MOUSE, Strain/Sex: NMRI/FEMALE, Target Tissue: Type of Lesion: SKIN: PAPILLOMA, Dose [Carcinogen]: 50 UG/G BW IN SESAME OIL): 95%, 94%, 1%, not significant

Question: For `O=c1[nH]cnc2[nH]ncc12`, which “tumour outcome (control, treated, inhibition, significance)” value (Carcinogen: N-BUTYL-N-(4-HYDROXYBUTYL)NITROSAMINE, 3817-11-6, Dose [Inhibitor]: 0.02% DIET DAILY FOR 34 WK STARTING AFTER CARCINOGEN TREATMENT (STUDY DURATION: 38 WK), Route [Inhibitor]: ORAL, Species: RAT, Strain/Sex: F344/MALE, Target Tissue: Type of Lesion: URINARY BLADDER: PAPILLOMA, Dose [Carcinogen]: 0.01% IN DRINKING WATER FOR 4 WK, Promoter: NONE USED) is on record?
Answer: The value was 33%, 43%, -30%, not significant.
